In ChEMBL document CHEMBL3046083, “Synthesis, characterization and antimicrobial evaluation of novel derivatives of isoniazid” (2012):
Values after ≈ are worked out from the molar mass of the structure shown.

Each molecule was assayed on Nakaseomyces glabratus (assay: Antimicrobial activity against Candida glabrata ATCC 10233 by broth dilution method). Details: not given.
Format: functional

| Molecule | MFC [µg/mL] | MIC [µg/mL] | MIC50 [µg/mL] |
| --- | --- | --- | --- |
| CCOc1c(/C=N\NC(=O)c2ccncc2)cccc1CN1CCCC1 | 100 (≈ 284 µM) | 12.5 (≈ 35.5 µM) | 12.8 (≈ 36.3 µM) |
| CCOc1c(/C=N\NC(=O)c2ccncc2)cccc1CN(CC)CC | 100 (≈ 282 µM) | 25 (≈ 70.5 µM) | 25.6 (≈ 72.2 µM) |
| CCOc1c(/C=N\NC(=O)c2ccncc2)cccc1CN1CCNCC1 | 50 (≈ 136 µM) | 12.5 (≈ 34 µM) | 12.8 (≈ 34.8 µM) |
| CCOc1c(/C=N\NC(=O)c2ccncc2)cccc1CN1CCOCC1 | 50 (≈ 136 µM) | 12.5 (≈ 33.9 µM) | 12.8 (≈ 34.7 µM) |
| NYSTATIN | 25 | 12.5 | 6.4 |
| CCOc1c(/C=N\NC(=O)c2ccncc2)cccc1CN(C)C | 100 (≈ 306 µM) | 25 (≈ 76.6 µM) | 25.6 (≈ 78.4 µM) |
| CCOc1c(/C=N\NC(=O)c2ccncc2)cccc1CN(c1ccccc1)c1ccccc1 | 50 (≈ 111 µM) | 12.5 (≈ 27.7 µM) | 12.8 (≈ 28.4 µM) |

These molecules were tested on Candida albicans (assay: Antimicrobial activity against Candida albicans ATCC 10231 by broth dilution method). Details: not given.
Format: functional

| Molecule | MFC [µg/mL] | MIC [µg/mL] | MIC50 [µg/mL] |
| --- | --- | --- | --- |
| CCOc1c(/C=N\NC(=O)c2ccncc2)cccc1CN1CCCC1 | 25 (≈ 70.9 µM) | 12.5 (≈ 35.5 µM) | 6.4 (≈ 18.2 µM) |
| CCOc1c(/C=N\NC(=O)c2ccncc2)cccc1CN(CC)CC | 25 (≈ 70.5 µM) | 25 (≈ 70.5 µM) | 12.8 (≈ 36.1 µM) |
| CCOc1c(/C=N\NC(=O)c2ccncc2)cccc1CN1CCNCC1 | 25 (≈ 68 µM) | 12.5 (≈ 34 µM) | 6.4 (≈ 17.4 µM) |
| CCOc1c(/C=N\NC(=O)c2ccncc2)cccc1CN1CCOCC1 | 25 (≈ 67.9 µM) | 12.5 (≈ 33.9 µM) | 6.4 (≈ 17.4 µM) |
| NYSTATIN | 12.5 | 6.25 | 3.2 |
| CCOc1c(/C=N\NC(=O)c2ccncc2)cccc1CN(C)C | 100 (≈ 306 µM) | 25 (≈ 76.6 µM) | 12.8 (≈ 39.2 µM) |
| CCOc1c(/C=N\NC(=O)c2ccncc2)cccc1CN(c1ccccc1)c1ccccc1 | 25 (≈ 55.5 µM) | 12.5 (≈ 27.7 µM) | 6.4 (≈ 14.2 µM) |

The molecules below were run on Escherichia coli (assay: Antimicrobial activity against Escherichia coli ATCC 25922 after 24 hr by broth dilution method). Details: ATCC 25922, 24 h.
Format: functional

| Molecule | MIC [µg/mL] | MIC50 [µg/mL] |
| --- | --- | --- |
| CCOc1c(/C=N\NC(=O)c2ccncc2)cccc1CN1CCCC1 | 6.25 (≈ 17.7 µM) | 3.2 (≈ 9.08 µM) |
| CCOc1c(/C=N\NC(=O)c2ccncc2)cccc1CN(CC)CC | 25 (≈ 70.5 µM) | 12.8 (≈ 36.1 µM) |
| CCOc1c(/C=N\NC(=O)c2ccncc2)cccc1CN1CCNCC1 | 6.25 (≈ 17 µM) | 3.2 (≈ 8.71 µM) |
| CCOc1c(/C=N\NC(=O)c2ccncc2)cccc1CN1CCOCC1 | 6.25 (≈ 17 µM) | 3.2 (≈ 8.69 µM) |
| CCOc1c(/C=N\NC(=O)c2ccncc2)cccc1CN(C)C | 25 (≈ 76.6 µM) | 12.8 (≈ 39.2 µM) |
| CCOc1c(/C=N\NC(=O)c2ccncc2)cccc1CN(c1ccccc1)c1ccccc1 | 6.25 (≈ 13.9 µM) | 3.2 (≈ 7.1 µM) |

These molecules were tested on Pseudomonas aeruginosa (assay: Antimicrobial activity against Pseudomonas aeruginosa ATCC […] after 24 hr by broth dilution method). Details: not given.
Format: functional

| Molecule | MIC [µg/mL] | MIC50 [µg/mL] |
| --- | --- | --- |
| CCOc1c(/C=N\NC(=O)c2ccncc2)cccc1CN1CCCC1 | 12.5 (≈ 35.5 µM) | 6.4 (≈ 18.2 µM) |
| CCOc1c(/C=N\NC(=O)c2ccncc2)cccc1CN(CC)CC | 25 (≈ 70.5 µM) | 12.8 (≈ 36.1 µM) |
| CCOc1c(/C=N\NC(=O)c2ccncc2)cccc1CN1CCNCC1 | 12.5 (≈ 34 µM) | 6.4 (≈ 17.4 µM) |
| CCOc1c(/C=N\NC(=O)c2ccncc2)cccc1CN1CCOCC1 | 12.5 (≈ 33.9 µM) | 6.4 (≈ 17.4 µM) |
| CCOc1c(/C=N\NC(=O)c2ccncc2)cccc1CN(C)C | 25 (≈ 76.6 µM) | 12.8 (≈ 39.2 µM) |
| CCOc1c(/C=N\NC(=O)c2ccncc2)cccc1CN(c1ccccc1)c1ccccc1 | 12.5 (≈ 27.7 µM) | 6.4 (≈ 14.2 µM) |

Each molecule was assayed on Staphylococcus aureus (assay: Antimicrobial activity against Staphylococcus aureus ATCC 29213 after 24 hr by broth dilution method). Details: ATCC 29213, 24 h.
Format: functional

| Molecule | MIC [µg/mL] | MIC50 [µg/mL] |
| --- | --- | --- |
| CCOc1c(/C=N\NC(=O)c2ccncc2)cccc1CN1CCCC1 | 12.5 (≈ 35.5 µM) | 6.4 (≈ 18.2 µM) |
| CCOc1c(/C=N\NC(=O)c2ccncc2)cccc1CN(CC)CC | 25 (≈ 70.5 µM) | 12.8 (≈ 36.1 µM) |
| CCOc1c(/C=N\NC(=O)c2ccncc2)cccc1CN1CCNCC1 | 3.12 (≈ 8.49 µM) | 3.2 (≈ 8.71 µM) |
| CCOc1c(/C=N\NC(=O)c2ccncc2)cccc1CN1CCOCC1 | 6.25 (≈ 17 µM) | 3.2 (≈ 8.69 µM) |
| CCOc1c(/C=N\NC(=O)c2ccncc2)cccc1CN(C)C | 25 (≈ 76.6 µM) | 12.8 (≈ 39.2 µM) |
| CCOc1c(/C=N\NC(=O)c2ccncc2)cccc1CN(c1ccccc1)c1ccccc1 | 6.25 (≈ 13.9 µM) | 3.2 (≈ 7.1 µM) |

The molecules below were run on Bacillus subtilis (assay: Antimicrobial activity against Bacillus subtilis ATCC […] after 24 hr by broth dilution method). Details: not given.
Format: functional

| Molecule | MIC [µg/mL] | MIC50 [µg/mL] |
| --- | --- | --- |
| CCOc1c(/C=N\NC(=O)c2ccncc2)cccc1CN1CCCC1 | 25 (≈ 70.9 µM) | 12.8 (≈ 36.3 µM) |
| CCOc1c(/C=N\NC(=O)c2ccncc2)cccc1CN(CC)CC | 25 (≈ 70.5 µM) | 12.8 (≈ 36.1 µM) |
| CCOc1c(/C=N\NC(=O)c2ccncc2)cccc1CN1CCNCC1 | 12.5 (≈ 34 µM) | 6.4 (≈ 17.4 µM) |
| CCOc1c(/C=N\NC(=O)c2ccncc2)cccc1CN1CCOCC1 | 12.5 (≈ 33.9 µM) | 6.4 (≈ 17.4 µM) |
| CCOc1c(/C=N\NC(=O)c2ccncc2)cccc1CN(C)C | 50 (≈ 153 µM) | 12.8 (≈ 39.2 µM) |
| CCOc1c(/C=N\NC(=O)c2ccncc2)cccc1CN(c1ccccc1)c1ccccc1 | 12.5 (≈ 27.7 µM) | 6.4 (≈ 14.2 µM) |

Each molecule was assayed on Nakaseomyces glabratus (assay: Antimicrobial activity against Candida glabrata ATCC 10233 at 100 ug/ml after 24 to 48 hr by agar diffusion method). Details: read-out: DIZ.
Format: functional

| Molecule | zone of inhibition at 100 µg/mL [mm] |
| --- | --- |
| CCOc1c(/C=N\NC(=O)c2ccncc2)cccc1CN1CCCC1 | 19 |
| CCOc1c(/C=N\NC(=O)c2ccncc2)cccc1CN(CC)CC | 14 |
| CCOc1c(/C=N\NC(=O)c2ccncc2)cccc1CN1CCNCC1 | 23 |
| CCOc1c(/C=N\NC(=O)c2ccncc2)cccc1CN1CCOCC1 | 21 |
| CCOc1c(/C=N\NC(=O)c2ccncc2)cccc1CN(C)C | 14 |
| CCOc1c(/C=N\NC(=O)c2ccncc2)cccc1CN(c1ccccc1)c1ccccc1 | 22 |

What follows are molecules tested on Candida albicans (assay: Antimicrobial activity against Candida albicans ATCC 10231 at 100 ug/ml after 24 to 48 hr by agar diffusion method). Details: read-out: DIZ.
Format: functional

| Molecule | zone of inhibition at 100 µg/mL [mm] |
| --- | --- |
| CCOc1c(/C=N\NC(=O)c2ccncc2)cccc1CN1CCCC1 | 18 |
| CCOc1c(/C=N\NC(=O)c2ccncc2)cccc1CN(CC)CC | 15 |
| CCOc1c(/C=N\NC(=O)c2ccncc2)cccc1CN1CCNCC1 | 24 |
| CCOc1c(/C=N\NC(=O)c2ccncc2)cccc1CN1CCOCC1 | 21 |
| CCOc1c(/C=N\NC(=O)c2ccncc2)cccc1CN(C)C | 13 |
| CCOc1c(/C=N\NC(=O)c2ccncc2)cccc1CN(c1ccccc1)c1ccccc1 | 21 |

The molecules below were run on Escherichia coli (assay: Antimicrobial activity against Escherichia coli ATCC 25922 at 100 ug/ml after 24 to 48 hr by agar diffusion method). Details: read-out: DIZ.
Format: functional

| Molecule | zone of inhibition at 100 µg/mL [mm] |
| --- | --- |
| CCOc1c(/C=N\NC(=O)c2ccncc2)cccc1CN1CCCC1 | 27 |
| CCOc1c(/C=N\NC(=O)c2ccncc2)cccc1CN(CC)CC | 20 |
| CCOc1c(/C=N\NC(=O)c2ccncc2)cccc1CN1CCNCC1 | 33 |
| CCOc1c(/C=N\NC(=O)c2ccncc2)cccc1CN1CCOCC1 | 31 |
| CCOc1c(/C=N\NC(=O)c2ccncc2)cccc1CN(C)C | 20 |
| CCOc1c(/C=N\NC(=O)c2ccncc2)cccc1CN(c1ccccc1)c1ccccc1 | 32 |

Each molecule was assayed on Pseudomonas aeruginosa (assay: Antimicrobial activity against Pseudomonas aeruginosa ATCC […] at 100 ug/ml after 24 to 48 hr by agar diffusion method). Details: read-out: DIZ.
Format: functional

| Molecule | zone of inhibition at 100 µg/mL [mm] |
| --- | --- |
| CCOc1c(/C=N\NC(=O)c2ccncc2)cccc1CN1CCCC1 | 20 |
| CCOc1c(/C=N\NC(=O)c2ccncc2)cccc1CN(CC)CC | 16 |
| CCOc1c(/C=N\NC(=O)c2ccncc2)cccc1CN1CCNCC1 | 23 |
| CCOc1c(/C=N\NC(=O)c2ccncc2)cccc1CN1CCOCC1 | 22 |
| CCOc1c(/C=N\NC(=O)c2ccncc2)cccc1CN(C)C | 15 |
| CCOc1c(/C=N\NC(=O)c2ccncc2)cccc1CN(c1ccccc1)c1ccccc1 | 22 |

These molecules were tested on Staphylococcus aureus (assay: Antimicrobial activity against Staphylococcus aureus ATCC 29213 at 100 ug/ml after 24 to 48 hr by agar diffusion method). Details: read-out: DIZ.
Format: functional

| Molecule | zone of inhibition at 100 µg/mL [mm] |
| --- | --- |
| CCOc1c(/C=N\NC(=O)c2ccncc2)cccc1CN1CCCC1 | 26 |
| CCOc1c(/C=N\NC(=O)c2ccncc2)cccc1CN(CC)CC | 21 |
| CCOc1c(/C=N\NC(=O)c2ccncc2)cccc1CN1CCNCC1 | 34 |
| CCOc1c(/C=N\NC(=O)c2ccncc2)cccc1CN1CCOCC1 | 32 |
| CCOc1c(/C=N\NC(=O)c2ccncc2)cccc1CN(C)C | 21 |
| CCOc1c(/C=N\NC(=O)c2ccncc2)cccc1CN(c1ccccc1)c1ccccc1 | 31 |

Each molecule was assayed on Bacillus subtilis (assay: Antimicrobial activity against Bacillus subtilis ATCC […] at 100 ug/ml after 24 to 48 hr by agar diffusion method). Details: read-out: DIZ.
Format: functional

| Molecule | zone of inhibition at 100 µg/mL [mm] |
| --- | --- |
| CCOc1c(/C=N\NC(=O)c2ccncc2)cccc1CN1CCCC1 | 22 |
| CCOc1c(/C=N\NC(=O)c2ccncc2)cccc1CN(CC)CC | 19 |
| CCOc1c(/C=N\NC(=O)c2ccncc2)cccc1CN1CCNCC1 | 27 |
| CCOc1c(/C=N\NC(=O)c2ccncc2)cccc1CN1CCOCC1 | 27 |
| CCOc1c(/C=N\NC(=O)c2ccncc2)cccc1CN(C)C | 17 |
| CCOc1c(/C=N\NC(=O)c2ccncc2)cccc1CN(c1ccccc1)c1ccccc1 | 26 |
